According to US20200087314A1, “HISTONE DEACETYLASE INHIBITORS” (BIOMARIN PHARMACEUTICAL INC., priority 2016, published 2020):
Counter-ions that a name gives are not always drawn.

Test system: Frataxin (FXN) mRNA expression
Assay: Effect of HDAC inhibitors on frataxin (FXN) mRNA expression in iPSC derived neuronal cells (qRT-PCR)
Type: cell-based
Details: iPSC derived neuronal cells differentiated 16 days, compound incubated 24 h
Description: Effect of HDAC Inhibitors on Frataxin (FXN) mRNA Expression
Method: mRNA quantification of compound-treated iPSC derived neuronal cells Neuronal stem cells were cultured in Neurobasal A medium (Life technologies #10888022) supplemented with N2, B27 (Life technologies #17502-048 and #17504-044), L-glutamine (Life technologies #25030081), supplemented with 20 ng/ml EGF (R&D Systems #236-EG) and 20 ng/ml bFGF (BioPioneer # HRP-0011). Neuronal differentiation was initiated by removing growth factors and culturing cells in Neurobasal A with N2 and B27. Cells were allowed to differentiate for 16 days. HDAC inhibitory compound was then added and incubate for 24 h. RNA isolation was performed using the RNeasy Plus mini kit (QIAgen #74134) using a QIAcube instrument per manufacturer's instructions. qRT-PCR was performed using qScript One-Step SYBR Green qRT-PCR Kit (Quanta Biosciences 170-8893BR) with the following conditions: 20 minutes at 50° C., 5 minutes at 95° C., and then 40 cycles of 20 seconds at 95° C., 20 seconds at 55° C., 30 seconds at 72° C. The primer sequences to detect expression of FXN were: 5′-[…]-3′ and 5′-[…]-3′.
Data for additional compounds for iPSC fold inductions and cLogP are shown in Table 4 The ranges reported for cLogP refer to the following. A<1, 1<B<2, 2<C<3, 3<D<5, E>5. NA refers to “not available.”

SMILES	Fold Induction
C[C@@H]1CN(Cc2ccc(C(=O)Nc3ccccc3N)cc2)[C@@H](C)CN1CC1CC1 (racemic) [Compound 477, N-(2-aminophenyl)-4-(((2S,5R)-4-(cyclopropylmethyl)-2,5-dimethylpiperazin-1-yl)methyl)benzamide]	1.8
C[C@@H]1CN(Cc2ccc(C(=O)Nc3ccccc3N)cc2)[C@@H](C)CN1CC(C)(C)O (racemic) [Compound 478, N-(2-aminophenyl)-4-(((2S,5R)-4-(2-hydroxy-2-methylpropyl)-2,5-dimethylpiperazin-1-yl)methyl)benzamide]	2.1
CC(C)(O)CN1CCN(Cc2ccc(C(=O)Nc3ccccc3N)cc2)CC1.Cl.Cl.Cl [Compound 146, N-(2-aminophenyl)-4-((4-(2-hydroxy-2-methylpropyl)piperazin-1-yl)methyl)benzamide]	1.8
Cl.Cl.Cl.Nc1ccccc1NC(=O)c1ccc(CN2CCN(CC3CC3)CC2)cc1 [Compound 147, N-(2-aminophenyl)-4-((4-(cyclopropylmethyl)piperazin-1-yl)methyl)benzamide]	1.8
CC(C)(O)CN1CCC(Cc2ccc(C(=O)Nc3ccc(F)cc3N)cc2)CC1 [Compound 161, N-(2-amino-4-fluorophenyl)-4-((1-(2-hydroxy-2-methylpropyl)piperidin-4-yl)methyl)benzamide]	1.2
CC(C)(C)CN1CCC(Cc2ccc(C(=O)Nc3ccc(F)cc3N)cc2)CC1 [Compound 162, N-(2-amino-4-fluorophenyl)-4-((1-neopentylpiperidin-4-yl)methyl)benzamide]	1.3
Nc1cc(F)ccc1NC(=O)c1ccc(CC2CCN(CC3CC3)CC2)cc1 [Compound 163, N-(2-amino-4-fluorophenyl)-4-((1-(cyclopropylmethyl)piperidin-4-yl)methyl)benzamide]	1.2
Nc1cc(F)ccc1NC(=O)c1ccc(CC2CN(CC3CC3)C2)cc1 [Compound 169, N-(2-amino-4-fluorophenyl)-4-((1-(cyclopropylmethyl)azetidin-3-yl)methyl)benzamide]	1.3
Cl.Cl.Nc1ccccc1NC(=O)c1ccc(CN2CCCCC2)cc1 [Compound 171, N-(2-aminophenyl)-4-(piperidin-1-ylmethyl)benzamide]	0.9
CC1(C)CCN(Cc2ccc(C(=O)Nc3ccccc3N)cc2)CC1.Cl.Cl [Compound 172, N-(2-aminophenyl)-4-((4,4-dimethylpiperidin-1-yl)methyl)benzamide]	1.4
Cl.Cl.Nc1ccccc1NC(=O)c1ccc(CN2CCC3(CCCCC3)CC2)cc1 [Compound 174, 4-((3-azaspiro[5.5]undecan-3-yl)methyl)-N-(2-aminophenyl)benzamide]	1.1
Nc1ccccc1NC(=O)c1ccc(CN2CCC3(CC2)COC3)cc1 [Compound 175, 4-((2-oxa-7-azaspiro[3.5]nonan-7-yl)methyl)-N-(2-aminophenyl)benzamide]	1.5
Nc1ccccc1NC(=O)c1ccc(CN2CCC2)cc1 [Compound 176, N-(2-aminophenyl)-4-(azetidin-1-ylmethyl)benzamide]	1.5
CC(C)(O)CC1CCN(Cc2ccc(C(=O)Nc3ccccc3N)cc2)CC1 [Compound 181, N-(2-aminophenyl)-4-((4-(2-hydroxy-2-methylpropyl)piperidin-1-yl)methyl)benzamide]	1.5
Nc1ccccc1NC(=O)c1ccc(CN2CC3(C2)CN(CC2CC2)C3)cc1 [Compound 238, N-(2-aminophenyl)-4-((6-(cyclopropylmethyl)-2,6-diazaspiro[3.3]heptan-2-yl)methyl)benzamide]	1.5
Nc1ccccc1NC(=O)c1ccc(CN2CC3(CNC3)C2)cc1 [Compound 241, 4-((2,6-diazaspiro[3.3]heptan-2-yl)methyl)-N-(2-aminophenyl)benzamide]	1.9
Nc1ccccc1NC(=O)c1ccc(CC2CCN(CC34CC5CC(CC(C5)C3)C4)CC2)cc1 [Compound 354, 4-((1-(((3r,5r,7r)-adamantan-1-yl)methyl)piperidin-4-yl)methyl)-N-(2-aminophenyl)benzamide]	1.9
CC1(C)CC(Cc2ccc(C(=O)Nc3ccccc3N)cc2)CCN1CC1CC1 (stereo not drawn) [Compound 356, N-(2-aminophenyl)-4-((1-(cyclopropylmethyl)-2,2-dimethylpiperidin-4-yl)methyl)benzamide]	2.0

SMILES	Fold Induction
CC(C)(O)CN1CCC(Cc2ccc(C(=O)Nc3ccccc3N)cc2)CC1(C)C (stereo not drawn) [Compound 357, N-(2-aminophenyl)-4-((1-(2-hydroxy-2-methylpropyl)-2,2-dimethylpiperidin-4-yl)methyl)benzamide]	1.7
CC1(C)CC(Cc2ccc(C(=O)Nc3ccccc3N)cc2)CCN1 (stereo not drawn) [Compound 359, N-(2-aminophenyl)-4-((2,2-dimethylpiperidin-4-yl)methyl)benzamide]	1.9
CC(C)(O)CN1CCCC(Cc2ccc(C(=O)Nc3ccccc3N)cc2)CC1.Cl.Cl (stereo not drawn) [Compound 379, N-(2-aminophenyl)-4-((1-(2-hydroxy-2-methylpropyl)azepan-4-yl)methyl)benzamide dihydrochloride]	2.1
CC(C)=CC1CCN(Cc2ccc(C(=O)Nc3ccccc3N)cc2)CC1 [Compound 472, N-(2-aminophenyl)-4-((4-(2-methylprop-1-en-1-yl)piperidin-1-yl)methyl)benzamide]	1.5
C[C@@H]1CN(Cc2ccc(C(=O)Nc3ccccc3N)cc2)CCN1CC1CC1 [Compound 479, (R)-N-(2-aminophenyl)-4-((4-(cyclopropylmethyl)-3-methylpiperazin-1-yl)methyl)benzamide]	2.2
C[C@@H]1CN(Cc2ccc(C(=O)Nc3ccccc3N)cc2)CCN1CC(C)(C)O [Compound 480, (R)-N-(2-aminophenyl)-4-((4-(2-hydroxy-2-methylpropyl)-3-methylpiperazin-1-yl)methyl)benzamide]	2.0
C[C@H]1CN(CC2CC2)CCN1Cc1ccc(C(=O)Nc2ccccc2N)cc1 [Compound 481, (S)-N-(2-aminophenyl)-4-((4-(cyclopropylmethyl)-2-methylpiperazin-1-yl)methyl)benzamide]	1.6
C[C@H]1CN(CC(C)(C)O)CCN1Cc1ccc(C(=O)Nc2ccccc2N)cc1 [Compound 482, (S)-N-(2-aminophenyl)-4-((4-(2-hydroxy-2-methylpropyl)-2-methylpiperazin-1-yl)methyl)benzamide]	1.7
CC1(C)CN(Cc2ccc(C(=O)Nc3ccccc3N)cc2)CCN1CC1CC1 [Compound 483, N-(2-aminophenyl)-4-((4-(cyclopropylmethyl)-3,3-dimethylpiperazin-1-yl)methyl)benzamide]	1.7
CC(C)(O)CN1CCN(Cc2ccc(C(=O)Nc3ccccc3N)cc2)CC1(C)C [Compound 484, N-(2-aminophenyl)-4-((4-(2-hydroxy-2-methylpropyl)-3,3-dimethylpiperazin-1-yl)methyl)benzamide]	1.6
Nc1ccccc1NC(=O)c1ccc(CN2CCCN(CC3CC3)CC2)cc1 [Compound 485, N-(2-aminophenyl)-4-((4-(cyclopropylmethyl)-1,4-diazepan-1-yl)methyl) benzamide trihydrochloride]	2.2
CC(C)(O)CN1CCCN(Cc2ccc(C(=O)Nc3ccccc3N)cc2)CC1 [Compound 486, N-(2-aminophenyl)-4-((4-(2-hydroxy-2-methylpropyl)-1,4-diazepan-1-yl)methyl) benzamide]	1.9
C[C@@H]1CN(Cc2ccc(C(=O)Nc3ccccc3N)cc2)C[C@H](C)N1CC1CC1 [Compound 487, N-(2-aminophenyl)-4-(((3R,5S)-4-(cyclopropylmethyl)-3,5-dimethylpiperazin-1-yl)methyl)benzamide]	1.3
C[C@@H]1CN(Cc2ccc(C(=O)Nc3ccccc3N)cc2)C[C@H](C)N1CC(C)(C)O [Compound 488, N-(2-aminophenyl)-4-(((3R,5S)-4-(2-hydroxy-2-methylpropyl)-3,5-dimethylpiperazin-1-yl)methyl)benzamide]	1.5
C[C@@H]1CN(CC2CC2)C[C@H](C)N1Cc1ccc(C(=O)Nc2ccccc2N)cc1 [Compound 489, N-(2-aminophenyl)-4-(((2R,6S)-4-(cyclopropylmethyl)-2,6-dimethylpiperazin-1-yl)methyl)benzamide]	1.5
C[C@@H]1CN(CC(C)(C)O)C[C@H](C)N1Cc1ccc(C(=O)Nc2ccccc2N)cc1 [Compound 490, N-(2-aminophenyl)-4-(((2R,6S)-4-(2-hydroxy-2-methylpropyl)-2,6-dimethylpiperazin-1-yl)methyl)benzamide]	1.4
CC1(C)CN(CC2CC2)CCN1Cc1ccc(C(=O)Nc2ccccc2N)cc1 [Compound 491, N-(2-aminophenyl)-4-((4-(cyclopropylmethyl)-2,2-dimethylpiperazin-1-yl)methyl)benzamide]	1.7
CC(C)(O)CN1CCN(Cc2ccc(C(=O)Nc3ccccc3N)cc2)C(C)(C)C1 [Compound 492, N-(2-aminophenyl)-4-((4-(2-hydroxy-2-methylpropyl)-2,2-dimethylpiperazin-1-yl)methyl)benzamide]	1.2
